Laboratory results published in BindingDB's records for doi:10.1002/cbdv.201000242 (East China University of Science and Technology, 2011).

How the values were obtained:
Experiment in all cases: Inhibitory Assay
Details in all cases: pH 6.5
[1] = target: T1, Tyrosine-protein phosphatase non-receptor type 1 (Homo sapiens, UniProt P18031)
T1 sequence (P18031 whole entry): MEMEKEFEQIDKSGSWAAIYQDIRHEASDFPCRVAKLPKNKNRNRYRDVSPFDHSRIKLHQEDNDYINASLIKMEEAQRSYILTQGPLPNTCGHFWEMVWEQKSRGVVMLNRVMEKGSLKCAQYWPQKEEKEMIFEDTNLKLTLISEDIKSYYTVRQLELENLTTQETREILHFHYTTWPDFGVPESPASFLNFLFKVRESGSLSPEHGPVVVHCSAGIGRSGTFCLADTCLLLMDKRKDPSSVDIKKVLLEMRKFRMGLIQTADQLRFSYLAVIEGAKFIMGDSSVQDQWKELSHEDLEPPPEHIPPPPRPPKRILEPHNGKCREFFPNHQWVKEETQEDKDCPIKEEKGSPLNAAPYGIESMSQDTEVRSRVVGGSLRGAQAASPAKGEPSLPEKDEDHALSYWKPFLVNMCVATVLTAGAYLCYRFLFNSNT
Description: (§1) Enzymatic activity of enzyme was evaluated using pNPP assay. Briefly, a reaction mixture (100 µL) containing 50 mM MOPS (pH 6.5), 2 mM pNPP and recombinant enzymes was monitored at 405 nm for 2 min at 30 °C.

[2] = target: Receptor-type tyrosine-protein phosphatase F (Homo sapiens, UniProt P10586)
Description: as §1

[3] = target: T2, Tyrosine-protein phosphatase non-receptor type 2 (Homo sapiens, UniProt P17706)
T2 sequence (P17706 whole entry): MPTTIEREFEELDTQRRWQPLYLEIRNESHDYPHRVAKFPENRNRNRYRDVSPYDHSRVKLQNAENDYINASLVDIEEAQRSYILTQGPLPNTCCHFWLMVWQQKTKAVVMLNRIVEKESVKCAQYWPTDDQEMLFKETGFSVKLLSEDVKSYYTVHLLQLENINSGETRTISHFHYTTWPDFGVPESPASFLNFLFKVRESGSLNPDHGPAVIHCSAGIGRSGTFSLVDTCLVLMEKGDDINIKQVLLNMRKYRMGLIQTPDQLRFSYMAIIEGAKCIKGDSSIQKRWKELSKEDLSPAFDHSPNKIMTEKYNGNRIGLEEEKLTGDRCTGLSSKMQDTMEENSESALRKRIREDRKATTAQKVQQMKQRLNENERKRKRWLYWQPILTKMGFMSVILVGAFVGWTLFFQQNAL
Description: as §1

[4] = target: Tyrosine-protein phosphatase non-receptor type 6 (Homo sapiens, UniProt P29350)
Description: as §1

[5] = target: T3, Tyrosine-protein phosphatase non-receptor type 11 (Homo sapiens, UniProt Q06124)
T3 sequence (Q06124 whole entry): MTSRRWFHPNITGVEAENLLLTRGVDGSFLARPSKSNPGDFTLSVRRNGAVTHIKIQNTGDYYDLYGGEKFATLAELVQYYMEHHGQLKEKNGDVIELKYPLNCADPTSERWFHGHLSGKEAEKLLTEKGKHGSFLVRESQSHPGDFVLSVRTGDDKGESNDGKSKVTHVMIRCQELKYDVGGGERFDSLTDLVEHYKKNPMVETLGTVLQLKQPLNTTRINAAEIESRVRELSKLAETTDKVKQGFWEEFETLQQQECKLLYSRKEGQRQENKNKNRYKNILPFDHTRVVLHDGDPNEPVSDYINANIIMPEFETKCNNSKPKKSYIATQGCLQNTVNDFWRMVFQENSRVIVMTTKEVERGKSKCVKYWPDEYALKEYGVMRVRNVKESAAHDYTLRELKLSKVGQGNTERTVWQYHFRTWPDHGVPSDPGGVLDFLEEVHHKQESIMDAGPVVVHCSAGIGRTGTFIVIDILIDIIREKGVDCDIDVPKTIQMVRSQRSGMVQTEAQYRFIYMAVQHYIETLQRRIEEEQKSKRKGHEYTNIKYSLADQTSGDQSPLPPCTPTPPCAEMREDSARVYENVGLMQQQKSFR
Description: as §1

Receptor-type tyrosine-protein phosphatase F, sequence (P10586 whole entry): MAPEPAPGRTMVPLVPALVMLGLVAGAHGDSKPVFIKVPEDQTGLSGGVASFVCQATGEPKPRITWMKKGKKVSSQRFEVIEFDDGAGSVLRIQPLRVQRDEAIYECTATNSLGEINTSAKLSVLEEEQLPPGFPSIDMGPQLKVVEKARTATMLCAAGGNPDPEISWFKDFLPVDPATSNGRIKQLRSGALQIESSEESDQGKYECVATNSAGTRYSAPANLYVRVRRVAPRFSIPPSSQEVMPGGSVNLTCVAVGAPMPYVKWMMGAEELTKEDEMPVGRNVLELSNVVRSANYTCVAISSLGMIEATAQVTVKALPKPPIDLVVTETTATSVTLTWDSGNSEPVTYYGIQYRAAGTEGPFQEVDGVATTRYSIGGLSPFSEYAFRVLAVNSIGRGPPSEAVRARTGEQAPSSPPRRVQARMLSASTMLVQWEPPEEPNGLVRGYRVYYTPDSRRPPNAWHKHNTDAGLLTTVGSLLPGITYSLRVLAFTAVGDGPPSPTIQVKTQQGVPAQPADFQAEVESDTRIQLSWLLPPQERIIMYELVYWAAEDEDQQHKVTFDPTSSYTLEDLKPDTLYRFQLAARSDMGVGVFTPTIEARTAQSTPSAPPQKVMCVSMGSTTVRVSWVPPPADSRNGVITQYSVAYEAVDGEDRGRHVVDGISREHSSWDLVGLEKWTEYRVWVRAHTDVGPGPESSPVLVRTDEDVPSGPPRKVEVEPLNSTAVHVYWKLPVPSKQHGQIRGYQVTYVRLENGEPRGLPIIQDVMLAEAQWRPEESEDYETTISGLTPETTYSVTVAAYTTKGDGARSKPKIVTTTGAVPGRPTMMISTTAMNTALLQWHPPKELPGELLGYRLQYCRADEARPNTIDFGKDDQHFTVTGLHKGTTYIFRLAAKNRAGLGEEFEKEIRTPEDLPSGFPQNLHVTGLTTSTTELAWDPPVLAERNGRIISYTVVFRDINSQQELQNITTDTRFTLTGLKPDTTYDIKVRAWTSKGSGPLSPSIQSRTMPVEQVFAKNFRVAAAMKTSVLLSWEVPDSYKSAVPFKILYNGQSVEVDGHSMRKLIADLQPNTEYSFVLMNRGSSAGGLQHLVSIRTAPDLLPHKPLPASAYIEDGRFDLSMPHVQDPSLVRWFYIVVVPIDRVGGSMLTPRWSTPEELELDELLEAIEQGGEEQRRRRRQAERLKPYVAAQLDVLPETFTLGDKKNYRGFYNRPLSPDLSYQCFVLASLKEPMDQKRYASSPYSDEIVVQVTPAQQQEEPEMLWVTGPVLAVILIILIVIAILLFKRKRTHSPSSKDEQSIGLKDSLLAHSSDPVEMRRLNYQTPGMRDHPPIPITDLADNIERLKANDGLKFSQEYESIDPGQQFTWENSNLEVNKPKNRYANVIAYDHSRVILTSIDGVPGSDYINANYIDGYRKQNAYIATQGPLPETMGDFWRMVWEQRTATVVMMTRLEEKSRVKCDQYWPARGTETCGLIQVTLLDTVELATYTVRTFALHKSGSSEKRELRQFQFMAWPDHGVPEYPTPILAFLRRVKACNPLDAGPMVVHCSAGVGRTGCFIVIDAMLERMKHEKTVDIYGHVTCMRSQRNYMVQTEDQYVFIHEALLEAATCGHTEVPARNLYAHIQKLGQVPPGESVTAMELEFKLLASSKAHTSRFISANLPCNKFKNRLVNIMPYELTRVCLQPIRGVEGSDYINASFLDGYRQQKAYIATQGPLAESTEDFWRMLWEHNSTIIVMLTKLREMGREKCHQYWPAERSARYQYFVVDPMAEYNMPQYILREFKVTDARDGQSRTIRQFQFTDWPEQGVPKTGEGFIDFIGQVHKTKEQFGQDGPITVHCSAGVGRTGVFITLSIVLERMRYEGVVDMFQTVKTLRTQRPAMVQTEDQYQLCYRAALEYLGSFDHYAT
Tyrosine-protein phosphatase non-receptor type 6, sequence (P29350 whole entry): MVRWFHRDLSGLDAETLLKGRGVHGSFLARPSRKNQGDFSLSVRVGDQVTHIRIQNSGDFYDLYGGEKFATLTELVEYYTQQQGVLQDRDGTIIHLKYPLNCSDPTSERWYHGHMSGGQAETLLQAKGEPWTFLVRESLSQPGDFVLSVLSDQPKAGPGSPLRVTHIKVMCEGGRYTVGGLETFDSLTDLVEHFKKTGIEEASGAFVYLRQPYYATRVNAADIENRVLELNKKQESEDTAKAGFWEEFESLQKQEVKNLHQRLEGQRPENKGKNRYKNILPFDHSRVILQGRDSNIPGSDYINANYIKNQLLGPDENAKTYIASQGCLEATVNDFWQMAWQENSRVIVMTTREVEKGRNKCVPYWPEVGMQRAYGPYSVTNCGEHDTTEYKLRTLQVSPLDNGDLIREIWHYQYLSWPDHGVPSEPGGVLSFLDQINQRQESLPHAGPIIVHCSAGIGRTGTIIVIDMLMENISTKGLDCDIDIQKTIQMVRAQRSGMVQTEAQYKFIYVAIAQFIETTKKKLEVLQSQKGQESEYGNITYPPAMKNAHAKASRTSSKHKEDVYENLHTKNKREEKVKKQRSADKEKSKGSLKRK

With `CC(=O)OC[C@H]1O[C@H](n2cc(Cn3cnc4c(Cl)nc(N)nc43)nn2)[C@H](OC(C)=O)[C@@H](OC(C)=O)[C@@H]1OC(C)=O` [2-Amino-6-chloro-9-{[1-(2,3,4,6-tetra-O-acetyl-b-d-glucopyranosyl)-1H-1,2,3-triazol-4-yl]methyl}-9H-purine (7)] the IC50 [1] was > 80 µM, the IC50 [2] was > 80 µM and the IC50 [3] was > 80 µM. For the same compound, the IC50 [4] was > 80 µM and the IC50 [5] was > 80 µM.
`C#CCn1cnc2c(Cl)nc(N)nc21` [6-Chloro-9-(prop-2-yn-1-yl)-9H-purin-2-amine (2)] was tested, and the IC50 [1] was 232 µM, the IC50 [2] was > 80 µM and the IC50 [3] was > 80 µM. The IC50 [4] was > 80 µM and the IC50 [5] was > 80 µM.
With `CC(=O)OC[C@H]1O[C@H](n2cc(CNc3nc(Cl)c4ncn(Cc5cn([C@H]6O[C@H](COC(C)=O)[C@@H](OC(C)=O)[C@H](OC(C)=O)[C@H]6OC(C)=O)nn5)c4n3)nn2)[C@H](OC(C)=O)[C@@H](OC(C)=O)[C@@H]1OC(C)=O` [6-Chloro-9-{[1-(2,3,4,6-tetra-O-acetyl-b-d-glucopyranosyl)-1H-1,2,3-triazol-4-yl]methyl}-2-({[1-(2,3,4,6-tetra-O-acetyl-b-d-glucopyranosyl)-1H-1,2,3-triazol-4-yl]methyl}amino)-9H-purine (8)] the IC50 [1] was > 80 µM, the IC50 [2] was > 80 µM and the IC50 [3] was > 80 µM. For the same compound, the IC50 [4] was > 80 µM and the IC50 [5] was > 80 µM.
In the case of `CO[C@H]1O[C@H](Cn2cc(CNc3nc(Cl)c4ncn(Cc5cn(C[C@H]6O[C@H](OC)[C@H](OCc7ccccc7)[C@@H](OCc7ccccc7)[C@@H]6OCc6ccccc6)nn5)c4n3)nn2)[C@@H](OCc2ccccc2)[C@H](OCc2ccccc2)[C@H]1OCc1ccccc1` [6-Chloro-N,9-bis[(1-{[(2R,3R,4S,5R,6S)-3,4,5-tris(benzyloxy)-tetrahydro-6-methoxy-2H-pyran-2-yl]methyl}-1H-1,2,3-triazol-4-yl)methyl]-9H-purin-2-amine (13)], the IC50 [1] is reported as 2.2 µM, the IC50 [2] is reported as > 80 µM and the IC50 [3] is reported as 11 µM. For the same compound, the IC50 [4] was > 80 µM and the IC50 [5] was > 80 µM.
In the case of `CO[C@H]1O[C@H](Cn2cc(CNc3nc(Cl)c4ncn(Cc5cn(C[C@H]6O[C@H](OC)[C@H](OCc7ccccc7)[C@@H](OCc7ccccc7)[C@H]6OCc6ccccc6)nn5)c4n3)nn2)[C@H](OCc2ccccc2)[C@H](OCc2ccccc2)[C@H]1OCc1ccccc1` [6-Chloro-N,9-bis[(1-{[(2R,3S,4S,5R,6S)-3,4,5-tris(benzyloxy)-tetrahydro-6-methoxy-2H-pyran-2-yl]methyl}-1H-1,2,3-triazol-4-yl)methyl]-9H-purin-2-amine (14)], the IC50 [1] is reported as 3.2 µM, the IC50 [2] is reported as > 80 µM and the IC50 [3] is reported as 18 µM. For the same compound, the IC50 [4] was > 80 µM and the IC50 [5] was > 80 µM.
For `C#CCNc1nc(Cl)c2ncn(CC#C)c2n1` [6-Chloro-N,9-di(prop-2-yn-1-yl)-9H-purin-2-amine (3)], the IC50 [1] was 75.7 µM, the IC50 [2] was > 80 µM and the IC50 [3] was > 80 µM. For the same compound, the IC50 [4] was > 80 µM and the IC50 [5] was > 80 µM.
In the case of `COc1nc(NCc2cn(C[C@H]3O[C@H](OC)[C@H](OCc4ccccc4)[C@@H](OCc4ccccc4)[C@H]3OCc3ccccc3)nn2)nc2c1ncn2Cc1cn(C[C@H]2O[C@H](OC)[C@H](OCc3ccccc3)[C@@H](OCc3ccccc3)[C@H]2OCc2ccccc2)nn1` [6-Methoxy-N,9-bis[ (1-{[(2R,3S,4S,5R,6S)-3,4,5-tris(benzyloxy)-tetrahydro-6-methoxy-2H-pyran-2-yl]methyl}-1H-1,2,3-triazol-4-yl)methyl]-9H-purin-2-amine (16)], the IC50 [1] is reported as 1.5 µM, the IC50 [2] is reported as > 80 µM and the IC50 [3] is reported as 2.9 µM. For the same compound, the IC50 [4] was 24.9 µM and the IC50 [5] was 35.7 µM.
With `COc1nc(NCc2cn(C[C@H]3O[C@H](OC)[C@H](OCc4ccccc4)[C@@H](OCc4ccccc4)[C@@H]3OCc3ccccc3)nn2)nc2c1ncn2Cc1cn(C[C@H]2O[C@H](OC)[C@H](OCc3ccccc3)[C@@H](OCc3ccccc3)[C@@H]2OCc2ccccc2)nn1` [6-Methoxy-N,9-bis[(1-{[(2R,3R,4S,5R,6S)-3,4,5-tris(benzyloxy)-tetrahydro-6-methoxy-2H-pyran-2-yl]methyl}-1H-1,2,3-triazol-4-yl)methyl]-9H-purin-2-amine (15)] the IC50 [1] was 7.9 µM, the IC50 [2] was > 80 µM and the IC50 [3] was 16.2 µM. The IC50 [4] was > 80 µM and the IC50 [5] was > 80 µM.
For `CO[C@H]1O[C@H](Cn2cc(Cn3cnc4c(Cl)nc(N)nc43)nn2)[C@H](OCc2ccccc2)[C@H](OCc2ccccc2)[C@H]1OCc1ccccc1` [Methyl 6-{4-[(2-Amino-6-chloro-9H-purin-9-yl)methyl]-1H-1,2,3-triazol-1-yl}-2,3,4-tri-O-benzyl-6-deoxy-a-d-galactopyranoside (10)], the IC50 [1] was 11.1 µM, the IC50 [2] was > 80 µM and the IC50 [3] was 53.6 µM. The IC50 [4] was > 80 µM and the IC50 [5] was > 80 µM.
With `CO[C@H]1O[C@H](Cn2cc(Cn3cnc4c(Cl)nc(N)nc43)nn2)[C@@H](OCc2ccccc2)[C@H](OCc2ccccc2)[C@H]1OCc1ccccc1` [Methyl 6-{4-[(2-Amino-6-chloro-9H-purin-9-yl)methyl]-1H-1,2,3-triazol-1-yl}-2,3,4-tri-O-benzyl-6-deoxy-a-d-glucopyranoside (9)] the IC50 [1] was 7.2 µM, the IC50 [2] was > 80 µM and the IC50 [3] was 29.9 µM. The IC50 [4] was > 80 µM and the IC50 [5] was > 80 µM.
For `COc1nc(N)nc2c1ncn2Cc1cn(C[C@H]2O[C@H](OC)[C@H](OCc3ccccc3)[C@@H](OCc3ccccc3)[C@H]2OCc2ccccc2)nn1` [Methyl 6-{4-[(2-Amino-6-methoxy-9H-purin-9-yl)methyl]-1H-1,2,3-triazol-1-yl}-2,3,4-tri-O-benzyl-6-deoxy-a-d-galactopyranoside (12)], the IC50 [1] was > 80 µM, the IC50 [2] was > 80 µM and the IC50 [3] was > 80 µM. The IC50 [4] was > 80 µM and the IC50 [5] was > 80 µM.
In the case of `COc1nc(N)nc2c1ncn2Cc1cn(C[C@H]2O[C@H](OC)[C@H](OCc3ccccc3)[C@@H](OCc3ccccc3)[C@@H]2OCc2ccccc2)nn1` [Methyl 6-{4-[(2-Amino-6-methoxy-9H-purin-9-yl)methyl]-1H-1,2,3-triazol-1-yl}-2,3,4-tri-O-benzyl-6-deoxy-a-d-glucopyranoside (11)], the IC50 [1] is reported as > 80 µM, the IC50 [2] is reported as > 80 µM and the IC50 [3] is reported as > 80 µM. For the same compound, the IC50 [4] was > 80 µM and the IC50 [5] was > 80 µM.
